Peptide text beside a SMILES is read from it. * marks the point of attachment. Fmoc = O=C(OCC1c2ccccc2-c2ccccc21)*; Ahx = NCCCCCC(=O)O
Molecular target: cathepsin L (Homo sapiens, UniProt P07711)
Details: 50 µM peptide, citrate buffer 0.1 M pH 5.5, 1 mM EDTA, 2 mM DTT, 37 °C, overnight reaction, product formation by HPLC
Protocol: Activity assay of peptides with cathepsin L.
The reaction mixture was analysed by HPLC to
detect the formation of products from the overnight reaction.
Degradation of non-fluorescent peptides by cathepsin L
A solution of cathepsin L (20 µg/mL, 24 units/L) in citrate buffer 0.1 M pH 5.5, 1 mM EDTA, 2 mM
DTT was preactivated at 25 °C for 15 minutes. A stock solution of peptide 4, 5, 6 or 7 (125 µL, 25 nmol,
0.20 mM in DMSO) was diluted in 365 µL of the assay buffer to a final concentration of 50 µM and pre-
incubated at 37 °C. 10 µL of pre-activated cathepsin L was then added to the peptide solution and
incubated with mild shaking at 37 °C. Aliquots of 100 µL were withdrawn at 0 min, 1 hour and overnight.
Samples were flash-frozen on liquid nitrogen and were heated at 100 °C for 120 seconds prior to the

cathepsin L, sequence (P07711 114-333, species assumed): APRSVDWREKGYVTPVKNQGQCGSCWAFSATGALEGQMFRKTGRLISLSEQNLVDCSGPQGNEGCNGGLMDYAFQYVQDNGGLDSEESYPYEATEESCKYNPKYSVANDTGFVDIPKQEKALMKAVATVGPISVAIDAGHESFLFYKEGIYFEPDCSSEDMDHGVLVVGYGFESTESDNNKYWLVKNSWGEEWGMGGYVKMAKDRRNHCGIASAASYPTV

## CC(C)[C@H](NC(=O)[C@H](Cc1ccccc1)NC(=O)CCCCCNC(=O)CCCCCNC(=O)OCC1c2ccccc2-c2ccccc21)C(=O)N[C@@H](CCCNC(=N)N)C(=O)NCC(=O)N[C@@H](C)C(=O)NCC(=O)N[C@@H](CCC(=O)O)C(N)=O [Peptide 3, Fmoc-Ahx-Ahx-FVRGAGE] ({Fmoc-Ahx-Ahx}-FVRGAGE-NH2)
  Activity assay of peptides with cathepsin L: active
